Experimental data from BigSolDB 2.1.

CC(=O)OC(c1ccccc1)C(Cl)(Cl)Cl (stereo unspecified)
solubility (mole fraction) (in acetic acid, 288.15 K): 0.0201
solubility (mole fraction) (in acetic acid, 293.15 K): 0.0271
solubility (mole fraction) (in acetic acid, 298.15 K): 0.0379
solubility (mole fraction) (in acetic acid, 303.15 K): 0.0482
solubility (mole fraction) (in acetic acid, 308.15 K): 0.0605
solubility (mole fraction) (in acetic acid, 313.15 K): 0.0767
solubility (mole fraction) (in acetic acid, 318.15 K): 0.1
solubility (mole fraction) (in acetic acid, 323.15 K): 0.127
solubility (mole fraction) (in acetic acid, 328.15 K): 0.167
solubility (mole fraction) (in acetone, 288.15 K): 0.0931
solubility (mole fraction) (in acetone, 293.15 K): 0.111
solubility (mole fraction) (in acetone, 298.15 K): 0.133
solubility (mole fraction) (in acetone, 303.15 K): 0.158
solubility (mole fraction) (in acetone, 308.15 K): 0.193
solubility (mole fraction) (in acetone, 313.15 K): 0.232
solubility (mole fraction) (in acetone, 318.15 K): 0.273
solubility (mole fraction) (in acetone, 323.15 K): 0.32
solubility (mole fraction) (in acetone, 328.15 K): 0.377
solubility (mole fraction) (in acetonitrile, 288.15 K): 0.036
solubility (mole fraction) (in acetonitrile, 293.15 K): 0.0408
solubility (mole fraction) (in acetonitrile, 298.15 K): 0.0579
solubility (mole fraction) (in acetonitrile, 303.15 K): 0.0719
solubility (mole fraction) (in acetonitrile, 308.15 K): 0.0989
solubility (mole fraction) (in acetonitrile, 313.15 K): 0.13
solubility (mole fraction) (in acetonitrile, 318.15 K): 0.168
solubility (mole fraction) (in acetonitrile, 323.15 K): 0.218
solubility (mole fraction) (in acetonitrile, 328.15 K): 0.286
solubility (mole fraction) (in ethanol, 288.15 K): 0.00865
solubility (mole fraction) (in ethanol, 293.15 K): 0.0108
solubility (mole fraction) (in ethanol, 298.15 K): 0.0134
solubility (mole fraction) (in ethanol, 303.15 K): 0.0171
solubility (mole fraction) (in ethanol, 308.15 K): 0.0217
solubility (mole fraction) (in ethanol, 313.15 K): 0.029
solubility (mole fraction) (in ethanol, 318.15 K): 0.0406
solubility (mole fraction) (in ethanol, 323.15 K): 0.0555
solubility (mole fraction) (in ethanol, 328.15 K): 0.0735
solubility (mole fraction) (in ethyl acetate, 288.15 K): 0.117
solubility (mole fraction) (in ethyl acetate, 293.15 K): 0.137
solubility (mole fraction) (in ethyl acetate, 298.15 K): 0.159
solubility (mole fraction) (in ethyl acetate, 303.15 K): 0.19
solubility (mole fraction) (in ethyl acetate, 308.15 K): 0.218
solubility (mole fraction) (in ethyl acetate, 313.15 K): 0.251
solubility (mole fraction) (in ethyl acetate, 318.15 K): 0.287
solubility (mole fraction) (in ethyl acetate, 323.15 K): 0.333
solubility (mole fraction) (in ethyl acetate, 328.15 K): 0.38
solubility (mole fraction) (in ethyl formate, 288.15 K): 0.0868
solubility (mole fraction) (in ethyl formate, 293.15 K): 0.105
solubility (mole fraction) (in ethyl formate, 298.15 K): 0.132
solubility (mole fraction) (in ethyl formate, 303.15 K): 0.165
solubility (mole fraction) (in ethyl formate, 308.15 K): 0.198
solubility (mole fraction) (in ethyl formate, 313.15 K): 0.236
solubility (mole fraction) (in ethyl formate, 318.15 K): 0.274
solubility (mole fraction) (in ethyl formate, 323.15 K): 0.314
solubility (mole fraction) (in ethyl formate, 328.15 K): 0.363
solubility (mole fraction) (in isopropanol, 288.15 K): 0.00712
solubility (mole fraction) (in isopropanol, 293.15 K): 0.00929
solubility (mole fraction) (in isopropanol, 298.15 K): 0.0129
solubility (mole fraction) (in isopropanol, 303.15 K): 0.0169
solubility (mole fraction) (in isopropanol, 308.15 K): 0.0211
solubility (mole fraction) (in isopropanol, 313.15 K): 0.0279
solubility (mole fraction) (in isopropanol, 318.15 K): 0.0382
solubility (mole fraction) (in isopropanol, 323.15 K): 0.0538
solubility (mole fraction) (in isopropanol, 328.15 K): 0.0742
solubility (mole fraction) (in methanol, 288.15 K): 0.00659
solubility (mole fraction) (in methanol, 293.15 K): 0.00757
solubility (mole fraction) (in methanol, 298.15 K): 0.00931
solubility (mole fraction) (in methanol, 303.15 K): 0.0121
solubility (mole fraction) (in methanol, 308.15 K): 0.0153
solubility (mole fraction) (in methanol, 313.15 K): 0.02
solubility (mole fraction) (in methanol, 318.15 K): 0.0264
solubility (mole fraction) (in methanol, 323.15 K): 0.0342
solubility (mole fraction) (in methanol, 328.15 K): 0.0447
solubility (mole fraction) (in n-propanol, 288.15 K): 0.0105
solubility (mole fraction) (in n-propanol, 293.15 K): 0.0132
solubility (mole fraction) (in n-propanol, 298.15 K): 0.0164
solubility (mole fraction) (in n-propanol, 303.15 K): 0.0216
solubility (mole fraction) (in n-propanol, 308.15 K): 0.0287
solubility (mole fraction) (in n-propanol, 313.15 K): 0.0375
solubility (mole fraction) (in n-propanol, 318.15 K): 0.0496
solubility (mole fraction) (in n-propanol, 323.15 K): 0.0667
solubility (mole fraction) (in n-propanol, 328.15 K): 0.0905
